For one assay, the system named is rat MAPCs. In words: Cytokine mediated differentiation of rat MAPCs, Q-RT-PCR and cell survival. It counts as cell-based. The settings on record: activin-A, BMP4 and cyclopamine or anti-SHH Ab withdrawn after d6, cells then maintained with the factor.
The next assay concerns murine MAPCs. The settings on record: about 10 ng/mL LIF added to PDGF-BB and EGF culture; cited from earlier work.
A further assay relates to human MAPCs. The settings on record: about 10 ng/mL LIF; cited from earlier work.

Experimental for rat MAPCs: For Q-RT-PCR reactions described herein, the primer sequences are presented in Tables 3-5 and the following protocols were used: RNA was extracted from the cells with the aid of the RNeasy Mini Kit (Qiagen; Valencia Calif.), followed by a DNase Treatment with DNA-Free™ (Ambion, Austin, Tex.). The RNA was reverse transcribed with TaqMan (Applied Biosystems, Foster City, Calif.; Step 1 (Incubation): 25° C., 10 min; Step 2 (RT): 48° C., 30 min; Step 3 (RT Inactivation): 95° C., 10 min).
Following reverse transcription, Quantitative Real Time PCR (Q-RT-PCR) was performed as follows: Step 1: 50° C., 2 min (Incubation); Step 2: 95° C., 10 min (Taq activation); Step 3: 95° C., 15 sec (Denaturation) followed by 60° C., 1 min (Extension) and repeat for 40 cycles; Step 4: 95° C., 15 sec (Dissociation); Step 5: 60° C., 20 sec (Melting curve); Step 6: 95° C., 15 sec.
In an initial series of studies, the effect of cell density (about 10^4-10^5 cells/cm^2), ECM component (fibronectin, collagen, matrigel) and different concentrations (10-100 ng/mL) of bFGF (10-100 ng/mL), FGF2 (10-100 ng/mL), Activin A (e.g., about 10 ng/mL to about 100 ng/mL), BMP4 (e.g., about 10 ng/mL to about 50 ng/mL), retinoic acid (about 10^−6M), EGF (e.g., about 10 to about 100 ng/mL), FGF10 (e.g., about 50 to about 150 ng/mL, including about 100 ng/mL), HGF (e.g., about 10 to about 100 ng/mL), GDF11 (e.g., about 50 to abut 150 ng/mL), cyclopamine (e.g., about 10 μM), anti-SHH antibody (Ab; e.g., about 10 μg/mL), nicotinamide (e.g., 5 μM to about 50 μM, including about 10 μM), exendin 4 (about 5 nM to about 50 nM, including about 10 nM), betacellulin (e.g., about 50 to abut 150 ng/mL) alone or in combinations of 2 or 3 and in different temporal sequences, on the induction of transcription factors, insulin, glucagon and somatostatin expression levels after 6, 12 and 18 days using Q-RT-PCR was determined.
Subsequent addition of factors believed to play a role in further proliferation and differentiation from pancreas-committed cells to mature endocrine pancreas, including EGF (e.g., about 50 ng/mL), HGF (e.g., about 50 ng/mL) and FGF10 (e.g., about 100 ng/mL), either alone or in combination was tested. […] Further optimization was obtained by adjusting the duration of the different steps along the differentiation course, as well addition of β-cellulin (50 ng/mL).

With EGF: epidermal growth factor, the cell survival result with rat MAPCs was “significantly better”. For the substance “HGF: mitogenic protein used at about 50 ng/mL”, the cell survival entry in the assay with rat MAPCs is listed as “significantly better”. Consider “LIF: leukemia inhibitory factor, culture supplement”, for which the cell growth result with murine MAPCs is on record as “significantly enhanced cell growth”. Further, the “short-term cell growth (cell doubling time till 25 cell doublings, Oct 4 expression)” value in the assay on human MAPCs was “did not affect short-term cell growth”.

The values are drawn from patent US8409859B2, “Differentiation of non-embryonic stem cells to cells having a pancreatic phenotype” (Regents of the University of Minnesota, priority 2005, dated 2013).
